# Measured values from publication PMC4747383, “Design of a peptidic inhibitor that targets the dimer interface of a prototypic galectin” (Oncotarget, 2015).
# What was measured:
# [1] = tested on: T cell; set-up: method as in PMID 25277199, PMID 24134186; conditions: ref [38], [50]; cited from earlier work
# [2] = tested on: recombinant hGal-7; experiment: Disruption of hGal-7 homodimers, native gel electrophoresis/Western blot; type: biochemical, human; conditions: for disruption of hGal-7 homodimers by biotinylated peptide: 0.5 μM hGal-7, 20 mM potassium phosphate pH 7.1, 60 min at 4°C, low SDS-PAGE Western blot, representative of two independent experiments
# From the text: To measure the ability of the peptides to disrupt the formation of hGal-7 dimers, we used mild denaturing native gel electrophoresis, a commonly used approach to visualize monomer-dimer equilibrium (Fig. 1A and Supplementary Fig. S1). […] This specificity at disrupting hGal-7 dimer formation is provided by distinct three-dimensional arrangements between otherwise very similar galectin homologues. Indeed, while all monomeric galectins reveal identical topologies, dimer formation in hGal-7 proceeds through a “back-to-back” topology of the monomers while other galectins, including hGal-1 and hGal-2, adopt a “side-by-side” structural arrangement (Fig. 1B). This structural organization provides additional means to specifically target and disrupt galectin function.
# Incubation of the recombinant B. hGal-1 and C. hGal-2 with hGal-7(129–135) was performed in the same potassium phosphate buffer. The effect of hGal-7(129–135) on the monomeric and dimeric forms of hGal-7/hGal-1/hGal-2 was assessed by Western blotting in native conditions with respective antibodies. The hGal-1/hGal-2 films were overexposed. PACAP28–38 was the control peptide used in order to ensure the specificity of hGal-7(129–135). Recombinant hGal-7 (0.5 μM) was also incubated with increasing concentrations of hGal-7(129–135) in 0.1 mM D. lactose or E. LacNac solutions. Results are representative of three independent experiments.
# Human Gal-7 cDNA was cloned into pET-22b(+) using NdeI and HindIII restriction enzymes. Human pET-Gal-1 vector was generously donated by Dr. S. Sato (McGill University, QC, Canada). The proteins were produced in E. coli BL21 (DE3) cells at 37°C. Isopropyl β-D-1-thiogalactopyranoside (IPTG) (1 mM) was added to the bacterial culture at OD600nm = 0.6–0.7 and then incubated for 4 h at 37°C to allow protein production. Bacterial pellets were resuspended in lysis buffer (0.7 mg/mL lysozyme, 10 mM Tris pH 8, 100 mM NaCl, 1 mM EDTA, 1 mM DTT and a protease inhibitor cocktail) and then incubated for 1 h at 37°C prior to centrifugation for 30 min at 15,000 × g (4°C). The supernatant was then filtered with 500 mL bottle top filter ([…]) (Corning, New York, NY, USA) and then ran through a lactose-agarose column (Sigma, St. Louis, MO, USA). The protein was eluted in 1 mL fractions with 150 mM lactose solution. Purified fractions were analyzed by SDS-PAGE. The hGal-7 was then concentrated and purified using Centrifugal filter units (Amicon Ultra-15, 10K) (EMD, Millipore, Etobicoke, ON) in 20 mM potassium phosphate at pH 7.1. All subsequent experiments with the recombinant proteins were performed in the same buffer solution unless mentioned otherwise. Brilliant Coomassie blue was purchased from BioRad (Bio-Rad Laboratories, Mississauga, ON, Canada). The recombinant protein hGal-2 was purchased from MyBiosource (San Diego, CA, USA). […]
# gaI-7 (0.5 μM) was incubated with increasing concentrations of biotin-labeled hGaI-7129–135 in 20 mM potassium phosphate buffer (pH 7.1) for 60 min at 4°C beforeWestern blot analysis in low SDS-PAGE using an anti-gaI-7 antibody. B. Similar experiments were carried out using recombinant human B. gaI-1 and C. gaI-2. Results are representative of two independent experiments.
# (also on this page, place not known: www.impactjournals.com/oncotarget/ Oncotarget, Materials 2015 Supplementary hGaI-7 129–135.)
# [3] = tested on: recombinant hGal-7; experiment: Solid phase fluorescent binding assay on hGal-7; set-up: species or system human; conditions: hGal-7 10 μg/ml coated, unlabeled peptide (1 mM) 60 min, then biotin-labeled peptide 120 min, room temperature, Streptavidin R-phycoerythrin fluorescence, three independent experiments
# From the text: Results are representative of three independent experiments. Error bars represent standard deviation.
# [4] = tested on: hGal-2; experiment: Binding to hGal-2; set-up: species or system human; conditions: biotinylated peptide; Supplementary Fig. S2 quoted
# [5] = tested on: recombinant hGal-1; conditions: hGal-1 10 μg/ml coated; unlabeled peptide (1 mM) 60 min, then biotin-labeled peptide 120 min, room temperature; Streptavidin R-phycoerythrin fluorescence; three independent experiments
substance,measurement,setting,value
Gal-7: human galectin-7,effects on T cell functions and survival,[1],strong cytotoxic and inhibitory effects on T cell functions and survival
"biotinylated hGal-7(129–135): biotinylated version of hGal-7(129–135), Biotin-NHS coupled via Ahx linker",disruption of hGal-7 homodimers by biotinylated peptide,[2],still capable of specifically inhibiting the formation of hGal-7 homodimers
same,disruption of hGal-7 homodimers by biotinylated peptide,[2]; listed as biotin-labeled hGaI-7129–135,Disruption of hGaI-7 dimer
same,binding to immobilized hGal-7,[3],could bind hGal-7
same,binding to immobilized hGal-7,[3]; listed as biotin-labeled hGal-7(129–135),dose-dependent interaction
same,binding to hGal-2,[4],not hGal-1 or hGal-2
same,binding to immobilized hGal-1,[5],not hGal-1 or hGal-2
"H-IRPGTVLRIRGLV-NH2 [hGal-7(13–25), peptide corresponding to hGal-7 segment between residues 13–25]",disruption of hGal-7 homodimers (in words),"[2]; 0.5 μM recombinant hGal-7, 20 mM potassium phosphate pH 7.1, 1 h at 4°C, native PAGE, Western blot",less potent than hGal-7(129–135) to disrupt hGal-7 homodimers
